In publication PMC9965520, “An Efficient Peptidomics Screening for Exogenous Substrates and Inhibitory Peptides of the Dipeptidase ACE from Milk Hydrolysate” (Pharmaceutics, 2023):
Like-named read-outs stand apart in the source and are kept apart here. No end group written: not given here.

What was measured:
ACE [1] = target: T1, ACE (Oryctolagus cuniculus, UniProt P12822); test: ACE hydrolysis of synthetic substrate candidates monitored by LC-MS at different incubation times; format: in vitro ADME, rabbit; parameters: ACE (EC 3.4.15.1, 1 unit) from rabbit lungs; purchased Sigma Chemical Co. (St. Louis, MO, USA); host or cells: rabbit lungs (tissue-derived enzyme); conditions: 37 °C; for Substrate content (%) 30min / Substrate content (%) 60min / Substrate content (%) 90min / Substrate content (%) 120min / Substrate content (%) 150min / Substrate content (%) 180min: synthetic peptide with ACE, RS% = As/(As+Ap)x100 from SIC peak areas, LC-MS
T1 sequence (P12822 34-1310): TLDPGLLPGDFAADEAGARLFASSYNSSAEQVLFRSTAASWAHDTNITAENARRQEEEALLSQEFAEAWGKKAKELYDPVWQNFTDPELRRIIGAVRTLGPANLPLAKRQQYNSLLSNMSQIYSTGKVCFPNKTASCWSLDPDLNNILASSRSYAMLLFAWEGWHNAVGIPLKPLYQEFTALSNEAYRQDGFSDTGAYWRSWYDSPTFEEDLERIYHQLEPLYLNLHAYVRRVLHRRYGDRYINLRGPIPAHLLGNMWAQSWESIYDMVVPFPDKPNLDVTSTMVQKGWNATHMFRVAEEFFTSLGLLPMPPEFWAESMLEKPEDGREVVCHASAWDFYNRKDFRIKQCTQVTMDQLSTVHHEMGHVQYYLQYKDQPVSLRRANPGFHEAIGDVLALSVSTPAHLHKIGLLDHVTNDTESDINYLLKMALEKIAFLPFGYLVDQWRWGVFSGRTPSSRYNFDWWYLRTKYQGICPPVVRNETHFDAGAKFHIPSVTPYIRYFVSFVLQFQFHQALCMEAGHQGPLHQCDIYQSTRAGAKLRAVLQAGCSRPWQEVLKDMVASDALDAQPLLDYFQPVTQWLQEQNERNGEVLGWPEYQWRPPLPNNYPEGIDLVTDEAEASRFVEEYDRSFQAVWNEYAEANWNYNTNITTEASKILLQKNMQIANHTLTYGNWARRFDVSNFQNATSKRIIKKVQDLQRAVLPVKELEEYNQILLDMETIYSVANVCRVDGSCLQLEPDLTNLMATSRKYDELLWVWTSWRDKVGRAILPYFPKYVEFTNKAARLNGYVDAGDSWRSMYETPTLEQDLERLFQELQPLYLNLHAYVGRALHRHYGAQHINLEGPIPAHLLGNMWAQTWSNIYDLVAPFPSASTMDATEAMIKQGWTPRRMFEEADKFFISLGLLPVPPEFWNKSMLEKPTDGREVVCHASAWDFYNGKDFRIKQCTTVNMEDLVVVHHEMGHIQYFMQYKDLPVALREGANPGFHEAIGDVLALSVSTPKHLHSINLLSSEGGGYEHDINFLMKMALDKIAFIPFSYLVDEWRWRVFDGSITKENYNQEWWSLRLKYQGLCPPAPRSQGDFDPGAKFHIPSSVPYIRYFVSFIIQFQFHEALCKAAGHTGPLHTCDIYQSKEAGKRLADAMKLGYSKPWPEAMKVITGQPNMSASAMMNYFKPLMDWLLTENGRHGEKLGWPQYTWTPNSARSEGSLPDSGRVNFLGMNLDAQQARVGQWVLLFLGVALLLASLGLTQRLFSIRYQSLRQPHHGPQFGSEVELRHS
Method: To confirm the reactivity of the identified peptide candidates towards ACE, the synthetic peptides were individually mixed with ACE and incubated at 37 °C for 3 h. The remaining peptide substrate and the resulting product were analyzed using LC-MS/MS. Meanwhile, the degradation rate of each peptide was monitored every 30 min using LC-MS. The percentage of the remaining substrate (RS%) at each time point was calculated as As/(As + Ap) 100%. In which, As is the selective ion chromatogram (SIC) peak area of remaining substrate and Ap is the peak area of the resulting product. The RS% was further compared with the D/H ratio obtained in Section 2.4.

ACE [2] = target: T1, ACE; test: ACE inhibitory (ACEI) assay with HHL as substrate, with and without ACE pre-incubation; format: biochemical, rabbit; parameters: ACE (EC 3.4.15.1, 1 unit) from rabbit lungs; purchased Sigma Chemical Co. (St. Louis, MO, USA); host or cells: rabbit lungs (tissue-derived enzyme); conditions: 37 °C, HA by HPLC-UV 228 nm, mean ± SD, triplicate
Method: The ACE inhibitory assay was performed based on the previous report with slight modification. […] The mixture was first incubated at 37 °C statically for 30 min, and then shaken at 200 rpm for another 30 min. The reaction was terminated using 60 µL of HCl (1 M). The hydrolyzed product of HHL, HA, was analyzed by HPLC (Hitachi Chromaster, Tokyo, Japan) equipped with a NUCLEODUR® C18 HTec column (4.6 mm × 250 mm; particle size 5 µm, Macherey-Nagel, Düren, Germany) and quantified by its chromatographic peak area. The mixture was separated using an isocratic elution with the solution containing 24% ACN and 0.1% TFA at a constant flow rate of 1 mL/min. The substrate and product were monitored using a UV-Vis detector at a wavelength of 228 nm. The ACEI activity (%) was calculated as shown below: ACEI activity (%) = [1 – (Ainhibitor/Ablank)] × 100% where Ainhibitor and Ablank were the resulting HA peak areas in the mixtures with and without inhibitors, respectively. Along with the peptide substrate’s ACEI activity, its IC50 value was also determined using a nonlinear regression between ACE inhibition (%), and the logarithm of inhibitor concentrations could be carried out with GraphPad Prism 5.0 (GraphPad Software, Inc., La Jolla, CA, USA).

ACE [3] = target: T1, ACE; conditions: Ang-I (1 μg) + peptide (1 μg), ACE 0.05 mU/µL, 200 mM borate buffer, 300 mM NaCl, pH 8.3, 37 °C, 3 h; RA% = AI/(AI+AII)x100, LC-MS SIC
Method: To a mixture of Ang-I (1 μg) and peptide substrate (1 μg) in 50 µL of borate buffe (200 mM borate buffer, 300 mM NaCl, pH 8.3), 20 µL of ACE (0.05 mU/µL) was added. The mixture was incubated at 37 °C and monitored using LC-MS/MS at 1, 2, 3, 4, 6, and 10 h. The LC separation was performed on Syncronis C18 column (150 mm × 2.1 mm, 5 µm, Thermo Scientific) and eluted with the mobile phase A (5% ACN and 0.1% FA) and B (95% ACN and 0.1% FA) at a flow rate of 350 µL/min. The elution gradient was programmed as (i) 0–5 min, isocratic elution with 5% B; (ii) 5–20 min, linear gradient from 5% to 55% B; (iii) 20–22 min, linear gradient from 55% to 80% solution B; and finally (iv) 22–30 min, isocratic elution maintained at 80% solution B. The degradation of Ang-I and the formation of Ang-II were analyzed using selective ion chromatogram (SIC) on a triple quadrupole mass analyzer (TSQ, Thermo Scientific). The percentage of the remaining angiotensin I (RA%) at each time point was calculated as AI/(AI + AII) × 100%, where AI is the SIC peak area of remaining Ang-I and AII is the peak area of the resulting Ang-II.

[4] = no ACE pre-incubation, 2.5 mM HHL, ACE 0.05 mU/µL, borate buffer, 30 min static + 30 min 200 rpm, read-out: IC50 (μM) (Regular Assay)
[5] = peptide pre-incubated with ACE, then HHL assay, read-out: IC50 (μM) (Pre-Incubation)

Row | Substance | Substrate content (%) 30min (ACE [1]) | Substrate content (%) 60min (ACE [1]) | Substrate content (%) 90min (ACE [1]) | Substrate content (%) 120min (ACE [1]) | Substrate content (%) 150min (ACE [1]) | Substrate content (%) 180min (ACE [1]) | IC50 (ACE [2]; [4]) | IC50 (ACE [2]; [5]) | Ang-I remained (RA%) on co-incubation with peptide (ACE [3]) | Hydrolysis of synthetic peptide by ACE (result in words) (ACE [1]; synthetic peptide incubated with ACE, 3 h, LC-MS/MS)
1 | LHLPLPLL [LL-8] | 58.04% | 37.06% | 22.61% | 11.41% | 7.12% | 6.82% | 12.3 ± 0.37 µM | 71.9 ± 2.19 µM |  | 
2 | AYFYPELFR [AR-9] | 2.40% | 1.59% | 0.00% | 0.00% | 0.00% | 0.00% | 6.8 ± 0.23 µM | 25.3 ± 0.96 µM | 73.9% | 
3 | LVYPFPGPIHNSL [LL-13] | 7.80% | 7.20% | 6.25% | 5.68% | 2.64% | 1.05% | 38.9 ± 2.05 µM | 27.3 ± 2.16 µM |  | 
4 | HLPLPLLQSW [HW-10] | 2.47% | 0.00% | 0.00% | 0.00% | 0.00% | 0.00% | 10.6 ± 0.17 µM | 17.8 ± 0.65 µM |  | 
5 | FFVAPFPEVF [FF-10] | 76.08% | 49.76% | 34.59% | 32.31% | 21.80% | 14.21% | 104 ± 2.47 µM | 44.6 ± 3.06 µM |  | partially hydrolyzed
6 | YVPLGTQ [YQ-7] | 8.35% | 7.02% | 6.54% | 6.41% | 6.27% | 5.83% | 250 ± 7.9 µM | 189 ± 9.6 µM |  | 
